Reference: patent US9309225B2, “N-((1-benzyl-1H-1,2,3-triazol-4-yl)methyl)arylamide compounds as potential anticancer agents and a process for the preparation thereof” (COUNCIL OF SCIENTIFIC & INDUSTRIAL RESEARCH, priority 2013, dated 2016)
Like-named read-outs stand apart in the source and are kept apart here.

What was measured:
A549 [1] = test: IC50 of compounds and E7010 against A549 cell line; type: cell-based
Text: (§1) In the present investigation, an attempt has been made, in view of the biological importance of both 2-anilino nicotinyl structure and 1,2,3-triazoles group. […] Introduction of triazole group on 2-anilino nicotinyl moiety resulted that there is enhancement of biological activity of representative compounds (1a, 1b, 1c, 1d, 1f, 1g, 1i, 1k, 6b and 6g) compare with E7010. Biological data of representative compounds has been provided in Table 1. • (Novel sulfonamides as potential, systemically active antitumor agents. Yoshino, H.; Ueda, N.; Niijima, J.; Sugumi, H.; Kotake, Y.; Koyanagi, N.; Yoshimatsu, K.; Asada, M.; Watanabe, T.; Nagasu, T. J. Med. Chem. 1992, 35, 2496-2497)

MCF-7 [2] = test: IC50 of compounds and E7010 against MCF-7 cell line; type: cell-based
Text: as §1

A549 [3] = conditions: A549 cell line; E7010 comparison value (Chem MedChem 2012, 7, 680-693); cited from earlier work
MCF-7 [4] = conditions: MCF-7 cell line; E7010 comparison value (Chem MedChem 2012, 7, 680-693); cited from earlier work
[5] = Homo sapiens, A549, A549 cell line
[6] = Homo sapiens, MCF7, MCF-7 cell line

Row | Compound | melting point [°C] | IC50 (A549 [1]; A549 cell line) [µM] | IC50 (A549 [1]; [5]) [µM] | IC50 (MCF-7 [2]; [6]) [µM] | IC50 (MCF-7 [2]; MCF-7 cell line) [µM] | IC50 (A549 [3]) [µM] | IC50 (MCF-7 [4]) [µM]
1 | O=C(NCc1cn(Cc2cccc(Oc3ccccc3)c2)nn1)c1cccnc1Nc1ccc(Cl)cc1 [Compound 1c, 2-(4-Chlorophenylamino)-N-((1-(3-phenoxybenzyl)-1H-1,2,3-triazol-4-yl)methyl)nicotinamide] | 127 to 129 | – | – | – | – | – | –
2 | O=C(NCc1cn(Cc2cccc(Oc3ccccc3)c2)nn1)c1cccnc1Nc1ccc(Br)cc1 [Compound 1d, 2-(4-Bromophenylamino)-N-((1-(3-phenoxybenzyl)-1H-1,2,3-triazol-4-yl)methyl)nicotinamide] | 160 to 162 | 1.9 | 1.25 to 3.98 | 0.74 to 2.51 | 0.97 | – | –
3 | O=C(NCc1cn(Cc2cccc(Oc3ccccc3)c2)nn1)c1cccnc1Nc1cccc(F)c1 [Compound 1f, 2-(3-Fluorophenylamino)-N-((1-(3-phenoxybenzyl)-1H-1,2,3-triazol-4-yl)methyl) nicotinamide] | 130 to 132 | 1.9 | 1.25 to 3.98 | – | – | – | –
4 | COc1cc(Cn2cc(CNC(=O)c3cccnc3Nc3ccc(F)cc3)nn2)cc(OC)c1 [Compound 6b, N-((1-(3,5-Dimethoxybenzyl)-1H-1,2,3-triazol-4-yl)methyl)-2-((4-fluorophenyl)amino) nicotinamide] | 140 to 142 | 1.25 | 1.25 to 3.98 | 0.74 to 2.51 | 1 | – | –
5 | COc1cc(Cn2cc(CNC(=O)c3cccnc3Nc3ccc(OC)cc3OC)nn2)cc(OC)c1 [Compound 6g, N-((1-(3,5-Dimethoxybenzyl)-1H-1,2,3-triazol-4-yl)methyl)-2-((2,4-dimethoxyphenyl)amino)nicotinamide] | 147 to 149 | 1.31 | 1.25 to 3.98 | 0.74 to 2.51 | 1.17 | – | –
6 | COc1ccc(S(=O)(=O)Nc2cccnc2Nc2ccc(O)cc2)cc1 [Compound E7010] | – | – | – | – | – | 4.45 | 9.06
